# What was measured:
# [1] = molecular target: T1, human recombinant serotonin (5-Hydroxytryptamine) 5-HT2C receptor (Homo sapiens, UniProt P28335); assay: Serotonin 5-HT2C radioligand binding ([3H]Mesulergine); settings: compound at 0.1 μM; read-out: Inhibition of ligand binding, Serotonin 5-HT2C (percent inhibition of specific binding)
# T1 construct: expressed in transfected cells; host or cells: CHO-K1
# T1 sequence (P28335 33-458): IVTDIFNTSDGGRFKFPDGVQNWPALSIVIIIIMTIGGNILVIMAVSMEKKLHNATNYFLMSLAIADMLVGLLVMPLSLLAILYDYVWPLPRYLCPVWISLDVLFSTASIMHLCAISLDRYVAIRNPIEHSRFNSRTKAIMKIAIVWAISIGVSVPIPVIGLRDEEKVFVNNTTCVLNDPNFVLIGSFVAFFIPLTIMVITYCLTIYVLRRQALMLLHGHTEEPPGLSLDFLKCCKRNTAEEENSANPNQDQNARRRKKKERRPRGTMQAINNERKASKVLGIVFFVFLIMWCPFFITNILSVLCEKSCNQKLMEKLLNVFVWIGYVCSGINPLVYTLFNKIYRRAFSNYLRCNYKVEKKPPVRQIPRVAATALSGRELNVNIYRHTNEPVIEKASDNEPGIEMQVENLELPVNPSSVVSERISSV
# Protocol: Compounds of the invention were incubated with 1 nM [^3H]Mesulergine for 60 min at 25° C. Non-specific binding was estimated in the presence of 1 μM Mianserin. Receptor proteins were filtered and washed, the filters were then counted to determine [^3H]Mesulergine specifically bound.
# [2] = molecular target: T2, human recombinant serotonin (5-Hydroxytryptamine) 5-HT7 receptor (Homo sapiens, UniProt P34969); assay: Serotonin 5-HT7 radioligand binding ([3H]LSD); settings: compound at 0.1 μM; read-out: Inhibition of ligand binding, Serotonin 5-HT7 (percent inhibition of specific binding)
# T2 construct: expressed in transfected cells; host or cells: CHO
# Protocol: Lysergic acid diethylamide (LSD) for 120 min. at 25° C. […] Receptor proteins were filtered and washed, the filters were then counted to determine [^3H]LSD specifically bound.
# [3] = molecular target: T3, human recombinant adrenergic α2C receptor (Homo sapiens, UniProt P18825); assay: Adrenergic α2C radioligand binding ([3H]MK-912); settings: read-out: Adrenergic (0.1 μM) a2C, percent inhibition of specific binding; compound at 0.1 μM; 1 nM [3H]MK-912
# T3 construct: expressed in transfected cells; host or cells: insect Sf9 cells
# T3 sequence (P18825 1-462): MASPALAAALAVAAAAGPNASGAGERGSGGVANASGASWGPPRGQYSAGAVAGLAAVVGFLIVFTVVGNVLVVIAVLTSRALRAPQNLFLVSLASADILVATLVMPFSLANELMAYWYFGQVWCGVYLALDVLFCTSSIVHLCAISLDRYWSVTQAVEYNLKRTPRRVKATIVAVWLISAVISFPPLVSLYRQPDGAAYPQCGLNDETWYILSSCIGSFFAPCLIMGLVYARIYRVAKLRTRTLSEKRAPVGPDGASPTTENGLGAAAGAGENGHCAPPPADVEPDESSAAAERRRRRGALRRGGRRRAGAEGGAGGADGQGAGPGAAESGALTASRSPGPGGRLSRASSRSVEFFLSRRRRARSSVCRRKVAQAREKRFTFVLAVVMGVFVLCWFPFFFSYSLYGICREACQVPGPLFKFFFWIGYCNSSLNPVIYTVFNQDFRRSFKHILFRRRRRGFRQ
# Outline: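 Membranes from Sf9 cells expressing the human receptor, in 50 mM Tris-HCl pH 7.4 with 12.5 mM MgCl2 and 2 mM EDTA, incubated with compound and 1 nM [3H]MK-912 for 60 min at 25 °C. Non-specific binding defined with 10 μM WB-4101. Filter-bound radioactivity counted; percent inhibition of specific binding reported.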
# [4] = molecular target: T4, human recombinant serotonin (5-Hydroxytryptamine) 5-HT5A receptor (Homo sapiens, UniProt P47898); assay: Serotonin 5-HT5A radioligand binding ([3H]LSD); settings: compound at 0.1 μM; read-out: Inhibition of ligand binding, Serotonin 5-HT5A (percent inhibition of specific binding)
# T4 construct: expressed in transfected cells; host or cells: CHO-K1
# Protocol: Compounds of the invention were incubated with 1.7 nM [^3H]Lysergic acid diethylamide (LSD) for 60 min at 37° C. […] Receptor proteins were filtered and washed, the filters were counted to determine [^3H]LSD specifically bound.
# [5] = molecular target: T5, human recombinant serotonin (5-Hydroxytryptamine) 5-HT6 receptor (Homo sapiens, UniProt P50406); assay: Serotonin 5-HT6 radioligand binding ([3H]LSD); settings: compound at 0.1 μM; read-out: Inhibition of ligand binding, Serotonin 5-HT6 (percent inhibition of specific binding)
# T5 construct: expressed in transfected cells; host or cells: HeLa
# Description: Receptor proteins were filtered and washed, the filters were then counted to determine [3H]LSD specifically bound.
# [6] = molecular target: T6, human recombinant histamine H1 receptor (Homo sapiens, UniProt P35367); assay: Histamine H1 radioligand binding ([3H]Pyrilamine); settings: read-out: Histamine H1 Binding (1 μM), percent inhibition of specific binding; compound at 1 μM; 1.2 nM [3H]Pyrilamine
# T6 construct: expressed in transfected cells; host or cells: CHO-K1
# Outline: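 Results expressed as percent inhibition of specific [3H]pyrilamine binding, counted on filters after washing. Receptor source: CHO-K1 cells expressing recombinant human H1, in modified Tris-HCl buffer (50 mM, pH 7.4; 2 mM MgCl2, 100 mM NaCl, 250 mM sucrose). 1 μM pyrilamine defined non-specific binding.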
# T2 sequence (P34969 whole entry): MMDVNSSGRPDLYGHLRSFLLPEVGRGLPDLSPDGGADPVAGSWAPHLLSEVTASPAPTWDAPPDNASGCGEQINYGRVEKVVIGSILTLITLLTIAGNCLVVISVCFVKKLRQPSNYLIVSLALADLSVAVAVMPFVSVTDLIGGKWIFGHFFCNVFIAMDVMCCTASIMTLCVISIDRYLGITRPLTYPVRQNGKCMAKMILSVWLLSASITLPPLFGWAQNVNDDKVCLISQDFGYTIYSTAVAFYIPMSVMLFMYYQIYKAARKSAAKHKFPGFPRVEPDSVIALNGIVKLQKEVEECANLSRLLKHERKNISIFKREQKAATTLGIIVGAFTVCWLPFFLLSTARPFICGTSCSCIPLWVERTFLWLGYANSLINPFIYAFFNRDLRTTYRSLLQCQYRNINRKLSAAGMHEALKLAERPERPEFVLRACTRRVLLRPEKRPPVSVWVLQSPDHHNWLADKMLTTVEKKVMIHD
# T4 sequence (P47898 whole entry): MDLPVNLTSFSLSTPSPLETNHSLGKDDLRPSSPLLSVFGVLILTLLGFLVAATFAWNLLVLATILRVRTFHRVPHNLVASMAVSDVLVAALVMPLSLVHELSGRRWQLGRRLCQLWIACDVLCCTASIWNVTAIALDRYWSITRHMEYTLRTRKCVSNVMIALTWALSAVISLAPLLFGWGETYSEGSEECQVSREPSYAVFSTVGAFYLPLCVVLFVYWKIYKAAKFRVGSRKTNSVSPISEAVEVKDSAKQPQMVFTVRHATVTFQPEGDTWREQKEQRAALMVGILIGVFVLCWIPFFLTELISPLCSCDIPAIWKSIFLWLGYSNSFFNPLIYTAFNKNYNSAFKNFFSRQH
# T6 sequence (P35367 whole entry): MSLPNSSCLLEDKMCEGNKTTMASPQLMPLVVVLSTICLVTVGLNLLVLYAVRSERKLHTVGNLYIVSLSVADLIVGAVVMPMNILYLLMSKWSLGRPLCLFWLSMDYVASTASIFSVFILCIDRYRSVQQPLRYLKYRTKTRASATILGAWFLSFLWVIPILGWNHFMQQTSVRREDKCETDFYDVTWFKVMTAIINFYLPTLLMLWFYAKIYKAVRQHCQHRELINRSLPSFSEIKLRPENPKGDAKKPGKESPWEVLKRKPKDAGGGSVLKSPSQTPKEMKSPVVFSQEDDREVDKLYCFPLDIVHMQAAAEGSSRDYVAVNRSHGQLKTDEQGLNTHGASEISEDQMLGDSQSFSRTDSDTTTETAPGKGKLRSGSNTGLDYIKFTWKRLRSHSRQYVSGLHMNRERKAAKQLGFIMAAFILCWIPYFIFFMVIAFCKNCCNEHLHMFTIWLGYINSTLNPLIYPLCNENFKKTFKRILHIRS
# T5 sequence (P50406 whole entry): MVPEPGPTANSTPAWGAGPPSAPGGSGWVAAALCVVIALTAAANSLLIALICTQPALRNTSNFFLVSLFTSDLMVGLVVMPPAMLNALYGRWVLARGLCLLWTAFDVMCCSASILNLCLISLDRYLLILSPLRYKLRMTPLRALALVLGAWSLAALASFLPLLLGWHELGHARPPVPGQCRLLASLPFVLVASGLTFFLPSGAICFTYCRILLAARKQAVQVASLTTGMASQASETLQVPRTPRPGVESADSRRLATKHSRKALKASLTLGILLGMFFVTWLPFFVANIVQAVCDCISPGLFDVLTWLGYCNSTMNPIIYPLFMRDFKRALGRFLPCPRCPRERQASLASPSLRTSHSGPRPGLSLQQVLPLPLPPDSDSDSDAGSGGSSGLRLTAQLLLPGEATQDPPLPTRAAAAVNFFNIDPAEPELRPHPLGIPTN
Structure (SMILES),inhibition at 0.1 µM [1],inhibition at 0.1 µM [2],inhibition at 0.1 µM [3],inhibition at 0.1 µM [4],inhibition at 0.1 µM [5],inhibition at 1 µM [6]
Cc1csc(-c2ccccc2-n2c3c(c4cc(C)ccc42)CN(C)CC3)c1 [Compound 36],83%,51%,67%,50%,13%,16%
Cc1ccc2c(c1)c1c(n2-c2ccc3cnccc3c2)CCN(C)C1 [Compound 38],88%,33%,11%,29%,73%,-4%
CNC(=O)c1cccc(-c2cscc2-n2c3c(c4cc(C)ccc42)CN(C)CC3)c1 [Compound No. 154],67%,73%,3%,85%,7%,20%
"Cc1ccc2c(c1)c1c(n2-c2cccc(-c3cn[nH]c3)c2)CCN(C)C1 [Compound No. 70, 5-(3-(1H-pyrazol-4-yl)phenyl)-2,8-dimethyl-2,3,4,5-tetrahydro-1H-pyrido[4,3-b]indole]",81%,50%,8%,43%,0%,8%
"Cc1ccc2c(c1)c1c(n2-c2ccccc2-c2ccc(F)nc2)CCN(C)C1 [Compound No. 84, 5-(2-(6-fluoropyridin-3-yl)phenyl)-2,8-dimethyl-2,3,4,5-tetrahydro-1H-pyrido[4,3-b]indole]",75%,25%,23%,29%,20%,26%
Cc1ccc2c(c1)c1c(n2-c2cscc2-c2c(C)noc2C)CCN(C)C1 [Compound 62],56%,48%,33%,54%,28%,27%
Cc1csc(-c2cscc2-n2c3c(c4cc(C)ccc42)CN(C)CC3)c1 [Compound 50],92%,97%,90%,81%,36%,54%
"Cc1ccc2c(c1)c1c(n2-c2ccccc2-c2ccc(C)s2)CCN(C)C1 [Compound No. 81, 2,8-dimethyl-5-(2-(5-methylthiophen-2-yl)phenyl)-2,3,4,5-tetrahydro-1H-pyrido[4,3-b]indole]",89%,72%,41%,69%,44%,57%
Cc1ccc2c(c1)c1c(n2-c2cscc2-c2ccnn2C)CCN(C)C1 [Compound No. 150],64%,88%,10%,65%,14%,22%
"Cc1csc(-c2ccc(-n3c4c(c5cc(C)ccc53)CN(C)CC4)nc2)c1 [Compound No. 144, 2,8-dimethyl-5-(5-(4-methylthiophen-2-yl)pyridin-2-yl)-2,3,4,5-tetrahydro-1H-pyrido[4,3-b]indole]",100%,37%,49%,38%,13%,11%
Cc1ccc2c(c1)c1c(n2-c2cscc2-c2ccc(C)s2)CCN(C)C1 [Compound No. 79],92%,98%,77%,93%,50%,61%
Cc1ccc2c(c1)c1c(n2-c2cscc2-c2ccc3cnccc3c2)CCN(C)C1 [Compound No. 68],10%,99%,29%,78%,18%,30%
"Cc1ccc2c(c1)c1c(n2-c2cccc(-c3ccc(F)cc3)c2)CCN(C)C1 [Compound 61, 5-(4′-fluorobiphenyl-3-yl)-2,8-dimethyl-2,3,4,5-tetrahydro-1H-pyrido[4,3-b]indole]",81%,48%,8%,24%,18%,42%
"Cc1ccc2c(c1)c1c(n2-c2cccc(-c3cnn(C)c3)c2)CCN(C)C1 [Compound 46, 2,8-dimethyl-5-(3-(1-methyl-1H-pyrazol-4-yl)phenyl)-2,3,4,5-tetrahydro-1H-pyrido[4,3-b]indole]",41%,51%,6%,32%,14%,19%
"Cc1ccc2c(c1)c1c(n2-c2ccc3c(c2)CCN(C=O)C3)CCN(C)C1 [Compound No. 77, 6-(2,8-dimethyl-1,2,3,4-tetrahydro-pyrido[4,3-b]indol-5-yl)-3,4-dihydro-1H-isoquinoline-2-carbaldehyde]",51%,35%,0%,21%,5%,35%
"Cc1ccc2c(c1)c1c(n2-c2ccc(-c3cccnc3)cn2)CCN(C)C1 [Compound No. 133, 5-(3,3′-bipyridin-6-yl)-2,8-dimethyl-2,3,4,5-tetrahydro-1H-pyrido[4,3-b]indole]",92%,21%,0%,6%,10%,6%
CNC(=O)c1cc(-n2c3c(c4cc(C)ccc42)CN(C)CC3)cs1 [Compound No. 78],35%,22%,3%,24%,17%,13%
"Cc1ccc2c(c1)c1c(n2-c2cccc(-c3cccn3C)c2)CCN(C)C1 [Compound No. 69, 2,8-dimethyl-5-(3-(1-methyl-1H-pyrrol-2-yl)phenyl)-2,3,4,5-tetrahydro-1H-pyrido[4,3-b]indole]",79%,25%,-4%,36%,21%,42%
"Cc1ccc2c(c1)c1c(n2-c2ccc(-c3sccc3C)cn2)CCN(C)C1 [Compound No. 148, 2,8-dimethyl-5-(5-(3-methylthiophen-2-yl)pyridin-2-yl)-2,3,4,5-tetrahydro-1H-pyrido[4,3-b]indole]",88%,35%,4%,50%,5%,5%

# Source: US9187471B2, “Pyrido [4,3-b] indole and pyrido [3,4-b] indole derivatives and methods of use” (Medivation Technologies, Inc., priority 2010, dated 2015)
